*1 amine or outer side, *2 acyl side, *3 side chain or, on linkers, in order; H or OH if unused. Where a SMILES comes first, the peptide text is derived from it. Bridges are numbered along the chain shown (N, C = ends). [ ]: non-standard residue; d: D form. The star is where a group is joined. Orn(4R-OH,5R-OCH2CH2NMe3+) = C[N+](C)(C)CCO[C@@H](N[*:3])[C@H](O)C[C@H](N[*:1])C(=O)[*:2]; pTerphenylCO(4''-OnC5H11) = CCCCCOc1ccc(-c2ccc(-c3ccc(C(=O)*)cc3)cc2)cc1; hTyr(3S-OH,4S-OH) = N[C@H](C(=O)O)[C@H](O)[C@@H](O)c1ccc(O)cc1; Pro(3S-OH,4S-Me) = C[C@H]1CN[C@H](C(=O)O)[C@H]1O; Hyp = O=C(O)[C@@H]1C[C@@H](O)CN1
Experiments:
[1] = Monkey excretion/mass balance of [14C]-rezafungin; format: in vivo, cynomolgus monkeys
Protocol: (§1) (ii) Monkey study design. The study used 3 male cynomolgus monkeys, each administered a single 10 mg/kg IV dose of [^14C]-rezafungin (with a target radioactivity of 100 μCi/kg of [^14C]-rezafungin) by infusion into a saphenous vein over 20 min. Whole blood and plasma samples were collected at each of the following time points: predose, 0.5, 2, 4, 8, 24, 48, 96 120, 144, 168, 240, 480, 720, and 1440 h postdose. Urine, feces, and cage washings were collected at predose (urine/feces only) and daily 24-h collections for 30 days.
(§2) (iii) Sample analysis. Whole blood and fecal homogenates were combusted prior to analysis by liquid scintillation counting (LSC). Blood, plasma, bile, urine, cage rinse/wash, and fecal homogenate samples were mixed with scintillation fluid and analyzed for radioactivity by LSC. Rat carcasses were dissolved in potassium hydroxide, and the resulting digests were mixed with scintillation fluid and analyzed for radioactivity by LSC.

[2] = Monkey blood and plasma radioactivity pharmacokinetics; format: in vivo, cynomolgus monkeys
Protocol: as §1, §2

[3] = Human excretion/mass balance of [14C]-rezafungin; format: in vivo
Protocol: (§3) (i) Study design. This was an open-label, phase I, single-dose mass balance study. The study was conducted at Labcorp (formerly, Covance, Inc.; Madison, WI) in accordance with good clinical practice, including ICH guidelines and applicable regulatory requirements, and in general conformity with the Declaration of Helsinki. No animal work was conducted by Labcorp. All pertinent study documents were reviewed by the Institutional Review Board (IRB) prior to study initiation. Following IRB approval and collection of written informed consent, all the subjects underwent an initial screening assessment within 28 days of the first dose. Safety was assessed by vital signs, physical examinations, AE assessments, laboratory tests (chemistry, hematology, and urinalysis), and a 12-lead electrocardiogram.
(§4) Subjects were initially confined in the clinical research unit (CRU) for 17 days postdose and returned for two follow-up visits (days 29 and 60). Recovery of radioactivity was estimated by linear interpolation during the period of time subjects were away from the CRU. Blood samples, urine, and feces were collected at specified times over 60 days.
(§5) (ii) Sample analysis. Whole blood, plasma, urine, and fecal homogenate samples were mixed with scintillation fluid and analyzed by liquid scintillation counting. For non-radiolabeled rezafungin concentration determination, a bioanalytical method was validated for measuring rezafungin in human plasma that is similar to one previously reported for animal plasma ([16]). Samples were analyzed using a 100 μl aliquot volume and a protein-precipitation extraction procedure followed by liquid chromatography/tandem mass spectrometry (LC-MS/MS) analysis. Chromatography was carried out on a Waters Atlantis HPLC column (dC18, 2.1 × 50 mm, 5 μm) operating under reverse-phase gradient conditions (0.1% formic acid in water/0.1% formic acid in acetonitrile/tetrahydrofuran ramped from 55%/45%/0% to 5%/0%/95%). Rezafungin calibration range was 10.0 ng/ml to 10,000 ng/ml using isotopically-labeled d9-rezafungin as an internal standard. An AB-Sciex API 4000 mass spectrometer was operated in the multiple reaction monitoring mode (parent-to-product ion transition) under optimized conditions for detection of rezafungin (m/z 604.5 to 343.3 Da) and d9-rezafungin (m/z 609.5 to 343.3 Da) positive ions formed by electrospray ionization. Excellent intra- and inter-assay accuracy and precision, as measured by quality control (QC) samples, was obtained during validation. Across the range of QC samples tested (lower limit of quantitation, LLOQ, through the High QC range), the intra-assay accuracy (% bias from nominal) ranged from −1.4% to 7.0% with the intra-assay precision (% coefficient of variation) ranging from 1.6% to 7.4%. Inter-assay accuracy ranged from 0.3% to 4.3% with the inter-assay precision ranging from 2.7% to 5%.

[4] = Human clinical pharmacokinetics (plasma rezafungin, plasma and whole blood total radioactivity); format: in vivo
Protocol: as §3, §4, §5
(iv) Metabolite profiling. Plasma samples were pooled across subjects through 672 h postdose to produce inter-subject time point pools. Urine and fecal homogenate samples were pooled by subject across various time points up through 408 and 672 h postdose, respectively. Selected samples of plasma, urine, and feces were profiled for rezafungin and metabolites by HPLC with radiochemical and high-resolution mass spectrometry detection; metabolites were identified by HPLC with known standards and/or by HPLC-MS/MS structure elucidation. Pharmacokinetics were calculated by non-compartmental analysis using Phoenix WinNonlin software (version 6.3/8.1; Pharsight, Mountain View, CA).

[5] = monkeys, 10 mg/kg IV, through 720 h postdose
[6] = of the estimated total through day 60
[7] = single 400-mg IV infusion, LSC, mean (SD)
[8] = single 400-mg IV infusion, mean (SD)
[9] = single 400-mg IV infusion, median (min, max)

Q: For `CCCCCOc1ccc(-c2ccc(-c3ccc(C(=O)N[C@H]4C[C@@H](O)[C@@H](OCC[N+](C)(C)C)NC(=O)[C@@H]5[C@@H](O)[C@@H](C)CN5C(=O)[C@H]([C@@H](C)O)NC(=O)[C@H]([C@H](O)[C@@H](O)c5ccc(O)cc5)NC(=O)[C@@H]5C[C@@H](O)CN5C(=O)[C@H]([C@@H](C)O)NC4=O)cc3)cc2)cc1` [rezafungin] ({pTerphenylCO(4''-OnC5H11)}-[Orn(4R-OH,5R-OCH2CH2NMe3+)]T[Hyp][hTyr(3S-OH,4S-OH)]T[Pro(3S-OH,4S-Me)]; lactam 1-C), which “Average total recovery of radioactivity” value ([1]; 3 male monkeys, single 10 mg/kg IV 20-min infusion (100 μCi/kg), at 168 h (1 week) postdose, LSC) is on record?
A: 47.02 % of the dose

Q: And the “Radioactivity recovered in feces” value ([1]; monkeys, 10 mg/kg IV, at 720 h postdose)?
A: 60 % of the administered dose

Q: And the “Mean total recovery of radioactivity” value ([1]; monkeys, 10 mg/kg IV, through 360 h postdose)?
A: 65 % of the dose

Q: What about the “Radioactivity recovered in cage residue” value [1, 5] of the same compound?
A: 4.3 % of the administered dose

Q: What about the “Radioactivity recovered in urine” value [1, 5] of the same compound?
A: 9.7 % of the administered dose

Q: What about the “t1/2 of plasma total radioactivity” value ([2]; monkey, IV [14C]-rezafungin 10 mg/kg, mean plasma concentrations) of the same compound?
A: 170 h

Q: And the “Ratio of blood-to-plasma AUC (radioactivity)” value ([2]; monkeys, 10 mg/kg IV)?
A: approximately 1

Q: What about the “Time of maximum blood and plasma radioactivity concentrations” value ([2]; monkeys, single IV 20-min infusion 10 mg/kg, first postdose sample) of the same compound?
A: 0.5 h

Q: What about the “Share of the total recovered radioactivity found in feces” value [3, 6] of the same compound?
A: Approximately 73%

Q: And the “Share of the total recovered radioactivity found in urine” value [3, 6]?
A: 27%

Q: What about the “Cumulative recovery of radioactivity from excreta” value ([3]; single 400-mg IV infusion, through the first 17 days (in-clinic), LSC, mean) of the same compound?
A: 52%

Q: What about the “Estimated mean overall recovery of the dose” value ([3]; through day 60, linear interpolation with day 29 and day 60 visits) of the same compound?
A: 88.3%

Q: And the “Cumulative recovery of radioactivity in feces” value ([3]; through the first 17 days)?
A: 38%

Q: And the “Cumulative recovery of radioactivity in urine” value ([3]; through the first 17 days)?
A: 14%

Q: And the Cmax ([4]; male, plasma, single 400-mg IV infusion, LC-MS/MS, mean (SD), SD)?
A: 18900 ng/mL

Q: And the AUC(0-inf) ([4]; male, plasma, single 400-mg IV infusion, LC-MS/MS, mean (SD), SD, read-out: AUC0-∞, plasma rezafungin)?
A: 2110 µg·h/mL

Q: And the Vd ([4]; male, plasma, single 400-mg IV infusion, apparent volume of distribution, terminal phase, mean (SD), SD, read-out: VZ, plasma rezafungin)?
A: 88.6 L

Q: And the Tmax ([4]; male, plasma, single 400-mg IV infusion, median (min, max))?
A: 1 h

Q: And the half-life ([4]; male, plasma, single 400-mg IV infusion, terminal elimination half-life, mean (SD), SD, read-out: t½, plasma rezafungin (converted))?
A: 341 h

Q: What about the AUC(0-t) ([4]; plasma, 9 healthy male subjects, single 400-mg IV infusion (200 μCi), LC-MS/MS, arithmetic mean (SD), SD, read-out: AUC0-t, plasma rezafungin) of the same compound?
A: 2050 µg·h/mL

Q: What about the “AUC0-t, plasma total radioactivity” value ([4]; single 400-mg IV infusion (200 μCi), LSC, mean (SD)) of the same compound?
A: 2600 (163) μg equivalent×hour/ml

Q: And the “AUC0-t, whole blood total radioactivity” value [4, 7]?
A: 2390 (175) μg equivalent×hour/ml

Q: What about the “AUC0-∞, plasma total radioactivity” value [4, 7] of the same compound?
A: 2750 (182) μg equivalent×hour/ml

Q: What about the “AUC0-∞, whole blood total radioactivity” value [4, 7] of the same compound?
A: 2450 (200) μg equivalent×hour/ml

Q: What about the “Cmax, plasma total radioactivity” value [4, 7] of the same compound?
A: 18.2 (2.28) μg/ml

Q: What about the “Cmax, whole blood total radioactivity” value [4, 7] of the same compound?
A: 18.5 (2.24) μg/ml

Q: What about the “t½, plasma total radioactivity” value [4, 8] of the same compound?
A: 387 (44.8) hours

Q: What about the “t½, whole blood total radioactivity” value [4, 8] of the same compound?
A: 408 (39.7) hours

Q: What about the “tmax, plasma total radioactivity” value [4, 9] of the same compound?
A: 1.00 (1.00, 1.00) hours

Q: What about the “tmax, whole blood total radioactivity” value [4, 9] of the same compound?
A: 1.00 (1.00, 1.00) hours

— publication PMC8765310, “Metabolism, Excretion, and Mass Balance of [^14C]-Rezafungin in Animals and Humans” (Antimicrobial Agents and Chemotherapy, 2022)
